# Patent publication US20080081825A1, “Nitrogen-Containing Heterocyclic Compounds and Medicinal Use Thereof” (priority 2004, published 2008)
# What was measured:
# [1] = target: recombinant human p38α MAP kinase (Homo sapiens, UniProt Q16539); assay: Study on p38α MAP kinase inhibitory activity (ATF-2 phosphorylation, Alpha Screen); type: biochemical; settings: ATF2 substrate, ATP 90 μmol/L
# Experimental: Using activation transcription factor-2 (hereinafter abbreviated as ATF-2) which is a substrate for p38α MAP kinase, the inhibitory action of the compounds of the present invention was investigated on the phosphorylation by a recombinant human p38α MAP kinase.
# A kinase buffer (25 mM Tris-HCl (pH 7.5), 5 mM […], 2 mM dithiothreitol, 0.1 mM Na3VO4, 10 mM MgCl2) containing a recombinant human p38α MAP kinase was added to a 384-well plate (5 μL) (6.25 ng protein/well) for fluorescence measurement. After addition of a kinase buffer (5 μL) containing the compound of the present invention, the resulting mixture was incubated at room temperature for 20 minutes. A substrate mixture (5 μL) of biotinylated ATF2 of 5 μg/mL (Upstate Biotechnology #14-432), adenosine triphosphate (90 μmol/L) (Sigma #FL-AAS) and anti-phosphorylated ATF2 antibody (20-fold dilution) (Cell Signaling Technology #9221L) prepared separately was added thereto, and enzyme reaction was carried out at 30° C. for 30 minutes. After the reaction, Hepes buffer (5 μL) containing 0.25% BSA and 100 mM EDTA was added to stop the enzyme reaction. The amount of a complex of the phosphorylated ATF2 and anti-phosphorylated ATF2 antibody produced by the reaction was measured using an Alpha Screenm Rabbit Detection kit (Packard #6760607).
# The p38α MAP kinase inhibitory activity, which is the effect of the compound of the present invention, was calculated as an inhibition rate (%) according to the following equation:
# (§1) Inhibition rate (%)={(AC−AX)/(AC−AB)}×100
# Inhibition rate of compounds with each concentration was calculated, and a value indicating 50% inhibition (IC50) was determined from the inhibition curve.
# [2] = test system: TNF-α production, THP-1 human monocyte cell line; assay: Inhibitory activity against TNF-α production using human cell lines (LPS-stimulated THP-1); type: cell-based; settings: 1.5 h, THP-1 cells, LPS stimulation, 90 minutes
# Experimental: Using THP-1 which is a human monocyte cell line, the inhibitory effect of the compound of the present invention against TNF-α production stimulated by lipopolysaccharide (LPS) was studied.
# Each 50 μL of lipopolysaccharide (LPS; Difco #3120-25-0) prepared to a concentration of 40 ng/mL using RPMI-1640 medium containing 10% fetal calf serum (hereinafter abbreviated to RPMI-1640) and RPMI-1640 containing the compound of the present invention was added to a 96-well plate for cell culture. One hundred μL of the cell suspension of THP-1 (Dainippon Pharmaceutical Co., Ltd, #06-202) prepared to a cell density of 2×10^6 cells/mL using RPMI-1640 was added and cultured for 90 minutes at 37° C. in an incubator (5% CO2, 95% air). After completion of the reaction, the culture medium supernatant was recovered and the amount of produced TNF-α was measured using an ELISA kit (Invitrogen, #850090192).
# The inhibitory activity against TNF-α production, which is the effect of the compound of the present invention, was calculated as an inhibition rate (%) by the following equation:
# as §1
# AX is a measured value with LPS induction in the presence of a test compound. Inhibition rate of compounds with each concentration was calculated, and a value indicating 50% inhibition (IC50) was determined from the inhibition curve.
# [3] = test system: TNF-α production induced by lipopolysaccharide (LPS); assay: Rat cytokine-production model (LPS-induced TNF-α in plasma); type: in vivo; settings: dose of 3 mg/kg orally, LPS 10 μg/kg intravenously after 2 hours, plasma 90 minutes after LPS
# Experimental: The in vivo effect of the compound of the present invention was studied on TNF-α production induced by lipopolysaccharide (LPS) in rats.
# A vehicle containing the compound of the present invention was orally administered to male Lew […] (Charles River Japan, Inc.), and after 2 hours, lipopolysaccharide (LPS, 055:B5, Difco) was intravenously administered at the dose of 10 μg/kg (5 animals/group). Only a vehicle was orally administered to a control group (5 animals). Ninety minutes after the LPS treatment, heparinized blood collection was performed via the abdominal cava vein under anesthesia with ether, and blood plasma was obtained by centrifugation (12,000 rpm, 3 minutes, 4° C.). The obtained blood plasma sample was stored at −80° C. until it was used. TNF-α in the blood plasma was measured using an ELISA kit from Genzyme/Techne (#10516).
# The inhibitory activity of the compound of the present invention against TNF-α production was calculated as an inhibition rate (%) according to the following equation:
# Inhibition rate (%)={(AC−AX)/A^C}×100
# Sequence of recombinant human p38α MAP kinase (Q16539 whole entry): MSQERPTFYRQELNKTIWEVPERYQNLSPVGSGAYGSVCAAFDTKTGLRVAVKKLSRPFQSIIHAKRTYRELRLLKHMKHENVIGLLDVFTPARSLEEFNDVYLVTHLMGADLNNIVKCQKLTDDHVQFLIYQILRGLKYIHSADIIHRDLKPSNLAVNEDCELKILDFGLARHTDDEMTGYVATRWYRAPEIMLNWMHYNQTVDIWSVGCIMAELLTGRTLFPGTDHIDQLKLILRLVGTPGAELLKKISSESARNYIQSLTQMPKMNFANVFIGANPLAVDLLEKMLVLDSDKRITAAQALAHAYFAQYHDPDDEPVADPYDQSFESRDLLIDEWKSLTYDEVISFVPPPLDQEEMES
SMILES,IC50 [1],IC50 [2],inhibition against in vivo TNF-α production induced by LPS stimulation [3]
"Cc1cc(F)cc(C)c1-n1cc(/C(=N/OC2CCN(C)CC2)c2ccc(F)cc2F)ccc1=O [Example 48, 5-((Z)-(2,4-difluorophenyl) {[(1-methyl-4-piperidinyl)oxy]iimino}methyl)-1-(4-fluoro-2,6-dimethylphenyl)-2(1H)-pyridinone]",34 nM,2.4 nM,72%
"Cc1cc(C)c(-n2cc(C(=NOC3CCN(C)CC3)c3ccc(F)cc3F)ccc2=O)c(C)c1 [Example 52(9), 5-((2,4-difluorophenyl){[(1-methyl-4-piperidinyl)oxy]imino}methyl)-1-mesityl-2(1H)-pyridinone]",20.5 nM,7.1 nM,72%
"O=c1ccc(C(=NO)c2ccc(F)cc2F)cn1-c1c(Cl)cccc1Cl [Example 7, 1-(2,6-dichlorophenyl)-5-[(2,4-difluorophenyl)(hydroxyimino)methyl]pyridin-2(1H)-one]",4.9 nM,–,–
